Assay results reported in patent US4760023A, “[21-leucine] human urogastrone, corresponding gene, corresponding recombinant plasmid, transformed cell and process for production thereof” (Wakunaga Seiyaku Kabushiki Kaisha, priority 1983, dated 1988).

How the values were obtained:
mouse 3T3 cell = target: T1, mouse 3T3 cell (Mus musculus, UniProt Q01279); test: RRA using mouse 3T3 cell; type: binding
T1 construct: endogenous in cells; host or cells: mouse 3T3 cells
Description: RPA using mouse 3T3 cell was carried out according to the process of C.

mouse 3T3 cells [1] = test: Bioassay of activity promoting proliferation of mouse 3T3 cells (viable cell count); type: cell-based; conditions: 4 days, 0.5% FBS-DME, FIG. 3
Description: The activity of promoting proliferation of cells was determined by the following procedure. More specifically, monolayer culturing of mouse 3T3 cells was carried out in a 25-cm^2 flask, and the cells were treated with calcium- and magnesium-free HBSS (CMF-HBSS) containing 0.02% of EDTA and 0.05% of trypsin to prepare cell suspensions. The cells were washed with CMF-HBSS and resuspended in DME medium containing 0.5% of fetal bovine serum (FBS), and the number of viable cells was counted. The cell suspension was diluted with 0.5% FBS-DME medium so that the cell number was 2×10^4 per ml. Then, 1 ml of the cell suspension was seeded per 35 mm dish and incubation was carried out overnight in a CO2 incubator. Peptide fractions containing different concentrations of [21-L] hUG and mEGF as a control were dissolved in 0.5% FBS-DME medium and the mixtures were filtered by a Millipore filter (type GV, wpo 2500), and 1 ml aliquots of the mixtures were added to the above cell suspension. Incubation was carried out for 4 days in a CO2 incubator (5% CO2 -95% air, 37° C.). Viable cells were stained with Trypan Blue, and the number of the viable cells was counted using a counting chamber. […]

[2] = tested on: ulcer caused by ligation of the pylorus; test: Inhibitory effect on generation of stomach ulcer (pylorus ligation); type: in vivo, rats of the Wister strain; conditions: rat
Description: The inhibitory effect of [21-L] hUG on generation of ulcer was examined on the basis of the activity of EGF of anti-gastric acid secretion [Gut, 16, 887 (1975)].
7-weeks-old male rats of the Wister strain were bred and caused to fast for 24 hours before ligation of the pylorus. The pylorus was ligated for 17 hours, and ulcer was caused by fasting and abstinence from drinking. The peptide fraction containing [21-L] hUG (corresponding to 500 μg of the protein) or physiological saline as a control was hypodermically injected 30 minutes before ligation of the pylorus. Each group tested consisted of 5 rats, and the anti-ulcer action was evaluated by calculating the ulcer index. More specifically, the long and short diameters of the olcerous erosion generated by ligation of the pylorus were measured under an anatomical microscope, and the sum of products of the long and short diameters per rat was defined as the ulcer coefficient.

KB cell EGF receptor = target: T2, KB cell EGF receptor (Homo sapiens, UniProt P00533); test: Radioreceptor assay (RRA) using KB cells, competition with 125I-mEGF; type: binding; conditions: FIG. 2
T2 construct: endogenous in cells; host or cells: KB cells (ATCC No. CCL17), intact cells in suspension
Description: RRA of [21-L] hUG was carried out using KB cells (ATCC No. CCL17) derived from a human nasopharyngeal epidermoid carcinoma in the light of the process of A. King et al [see J.B.C., 257, 3053 (1982)]. More specifically, monolayer culturing was carried out in DME medium in a 800-ml flask. The culture medium was removed, and cells were peeled with a phosphate buffer salt solution (PBS) containing 0.05% of EDTA to prepare a cell suspension. Then, the cells were washed 2 times with Hank's balanced salt solution (HBSS) containing 20 mM Hepes (pH 7.4). Then, the cells were suspended in a binding solution (DME medium, 20 mM Hepes, pH 7.4, 0.35 g/l of NaHCO3 and 100 μg/ml of Streptomycin), and the cell number was calculated and the cell density was adjusted to from 300,000 to 400,000 per 0.2 ml of the binding solution. The suspension was poured into tubes (0.2 ml in each tube), and 0.2 ml each of sample containing [21-L] hUG and ^125 I-mEGF (mouse EGF) at various concentrations were added into the tubes, respectively. Incubation was carried out at 37° C. for 1 hour. The cells were washed 3 times with ice-cold HBSS and suspended in 10% TCA, and the cells were separated from the solution by filtration through a glass filter. TCA was removed with acetone, and counting of radioactivity associated with the cells was performed by using a scintillation counter. […]

mouse 3T3 cells [3] = test: Bioassay of activity stimulating thymidine incorporation; type: cell-based; conditions: for 3H-Thymidine In-take Amount cpm: 18 hours; for 3H-Thymidine In-take Amount Δcpm: minus no addition
Description: Incorporation of thymidine was determined according to a modification of the method of Aharon Aharonov et al [J.B.C., 253, 3970 (1978)] and the method of Jimenez de Asua et al [PNAS, 72, 2724 (1975)]. More specifically, 6×10^3 of mouse 3T3 cells were seeded in 0.5 ml of 5% FBS-DME medium in a multi-well dish, and culturing was done for 5 days to grow as monolayers to sub-confluency. The medium was removed, and the cells were washed with PBS, and 0.5 ml of 0.5% FBS-DME medium was added. Incubation was done overnight. Then, 0.5 ml of 0.5% FBS-DME medium containing [21-L] hUG at a predetermined concentration or mEGF was added, and incubation was further continued for 18 hours. Then, 200 nci of [^3 H]-thymidine was added, and incubation was carried out at 55° C. for 30 minutes. The cells were washed twice with cold HBSS containing 20 mM Hepes (pH 7.4) and washed twice with 5% TCA. Then, 200 μl of 1N NaOH was added, and incubation was carried out at 55° C. for 30 minutes to dissolve DNA. Then, 50 μl of the DNA solution was taken and 25 μl of 2N HCl was added for neutralization. The radio-activity of Thymidine was measured by means of a liquid scintillation counter.

[21-leucine] human urogastrone (NSDSECPLSHDGYCLHDGVCLYIEALDKYACNCVVGYIGERCQYRDLKWWELR; Epidermal growth factor; UniProt P01133 971-1023, looked up, variant M21L) [[21-L] hUG, 53-residue polypeptide, same as hUG except that the 21st amino acid is Leu; produced in E. coli, released by cyanogen bromide]
RRA result using mouse 3T3 cell (mouse 3T3 cell): results similar to the results obtained in RRA using KB cell | dose-response curve of cell proliferation compared with mEGF (mouse 3T3 cells [1]): in good agreement with the curve for mEGF | Ulcer Coefficient ([2]; 500 μg of the protein hypodermically 30 minutes before ligation, pylorus ligated 17 hours): 44.5 ± 18.0 mm^2 | generation of the ulcer (in words) ([2]; pylorus ligation): tends to inhibit generation of the ulcer | inhibition of binding of 125I-mEGF to the KB cell EGF receptor (KB cell EGF receptor; 37° C., 1 hour): competitively inhibits binding | dosage-response curve in RRA compared with mEGF (KB cell EGF receptor): in good agreement with that of mEGF | 3H-Thymidine In-take Amount cpm (mouse 3T3 cells [3]; 0.73 μg/ml): 17,170.8 cpm | 3H-Thymidine In-take Amount Δcpm (mouse 3T3 cells [3]; 0.73 μg/ml): 12,531.3 cpm | 3H-Thymidine In-take Amount cpm (mouse 3T3 cells [3]; 1.46 μg/ml): 11,761.7 cpm | 3H-Thymidine In-take Amount Δcpm (mouse 3T3 cells [3]; 1.46 μg/ml): 7,122.2 cpm | 3H-Thymidine In-take Amount cpm (mouse 3T3 cells [3]; 2.93 μg/ml): 13,567.0 cpm | 3H-Thymidine In-take Amount Δcpm (mouse 3T3 cells [3]; 2.93 μg/ml): 8,927.5 cpm | thymidine incorporation (in words) (mouse 3T3 cells [3]; mouse 3T3 cells): promotes greatly thymidine incorporation

mouse epidermal growth factor (NSYPGCPSSYDGYCLNGGVCMHIESLDSYTCNCVIGYSGDRCQTRDLRWWELR; not fully specified; Epidermal growth factor; UniProt P01132 977-1029, looked up) [mEGF, mEGF (Toyobo, Japan), used for comparison]
3H-Thymidine In-take Amount cpm (mouse 3T3 cells [3]; 1 ng/ml): 14,510.5 cpm | 3H-Thymidine In-take Amount Δcpm (mouse 3T3 cells [3]; 1 ng/ml): 9,871.0 cpm | 3H-Thymidine In-take Amount cpm (mouse 3T3 cells [3]; 2 ng/ml): 13,387.4 cpm | 3H-Thymidine In-take Amount Δcpm (mouse 3T3 cells [3]; 2 ng/ml): 8,747.9 cpm | 3H-Thymidine In-take Amount cpm (mouse 3T3 cells [3]; 5 ng/ml): 14,695.2 cpm | 3H-Thymidine In-take Amount Δcpm (mouse 3T3 cells [3]; 5 ng/ml): 10,055.7 cpm | 3H-Thymidine In-take Amount cpm (mouse 3T3 cells [3]; 10 ng/ml): 14,094.6 cpm | 3H-Thymidine In-take Amount Δcpm (mouse 3T3 cells [3]; 10 ng/ml): 9,455.1 cpm
